Bounds are passed on as bounds.

The first test relates to primary cultured cells of rat dorsal root ganglion. The test is described as follows: Axon (neurite) extension in primary cultured cells of rat dorsal root ganglion with oxaliplatin-induced axonal injury. The settings on record: oxaliplatin alone 3 μM, 7 days; p<0.05. Type of test: cell-based. The text has this:
The effect of the cyclic amine derivative (I) or a pharmacologically acceptable salt thereof on neurite extension in primary cultured cells of rat dorsal root ganglion was examined.
Male SD rats (manufactured by Charles River Laboratories Japan, Inc.) of 4 to 7 weeks old were used. Each rat was anesthetized by intraperitoneally administering urethane. After confirming that the rat was anesthetized, the rat was rapidly euthanized by exsanguination from the abdominal aorta. After incision of the dorsal part, the spinal column was excised and cooled on ice. The dorsal side of the spinal column was cut off, and the spinal cord was removed from the ventral side of the spinal column to expose the dorsal root ganglia on the ventral side of the spinal column. The dorsal root ganglia (L3 to 6, right and left) were excised with tweezers, and dipped in ice-cold Leibovitz's L-15 medium (manufactured by Thermo Fisher Scientific), and the bundles of nerve fibers were removed under a stereoscopic microscope. The dorsal root ganglia from which the bundles of nerve fibers had been removed were made fine slits with ophthalmic scissors to be used as dorsal root ganglion pieces.
The dorsal root ganglion pieces were dipped in about 3 mL of a solution of collagenase A (manufactured by Roche Molecular Systems, Inc.), followed by incubation at 37° C. for 20 minutes. After the incubation, the resultant was centrifuged at 200×g at 25° C. for 5 minutes to remove a collagenase A solution corresponding to the supernatant. About 1 mL of a solution of trypsin was added thereto, followed by incubation at 37° C. for 5 minutes. Subsequently, about 3 mL of DMEM (manufactured by Thermo Fisher Scientific K.K.) containing 10% fetal bovine serum was added to the resultant, the resultant centrifuged at 200×g at room temperature for 5 minutes, and then the supernatant removed. […]
As to `O=C1[O][Pt]2([NH][C@@H]3CCCC[C@H]3[NH]2)[O]C1=O` [oxaliplatin, reference compound], the “length of a neurite compared to the non-treated group” value is given as “significantly reduced”.

The next test has as its system F11 cells (rat dorsal root ganglion neuron cell line). Nature of the test: Effect of decreasing intracellular actin filaments in F11 cells with oxaliplatin-induced axonal injury (phalloidin staining). The test is classed as cell-based. The settings on record: F-11 rat/mouse fusion cell line, F11, 120 h, compound 10 μM with oxaliplatin 15 μM, 5 days; compared to oxaliplatin alone treated group; average of five samples; read-out: Decreasing Rate of Intracellular Actin Filament (%). The text has this: The effect of the cyclic amine derivative (I) or a pharmacologically acceptable salt thereof on the amount of intracellular actin filaments in F11 cells (rat dorsal root ganglion neuron cell line) was examined.
As test compounds, the compounds of Examples 1, 2, 3, 4, 5, 6, 7, 8, and 9 were used.
As compounds of comparative examples, 1-(4-(dimethylamino)piperidin-1-yl)-3-(1-ethyl-1H-imidazol-2-yl)-3-hydroxypropan-1-one (hereinafter, the compound of Comparative Example 1), 1-(4-(dimethylamino)piperidin-1-yl)-3-hydroxy-3-(1-(2,2,2-trifluoroethyl)-1H-imidazol-2-yl)propan-1-one (hereinafter, the compound of Comparative Example 2), 1-((R)-3-(dimethylamino)pyrrolidin-1-yl)-3-hydroxy-3-(1-methyl-1H-imidazol-2-yl)propan-1-one (hereinafter, the compound of Comparative Example 3), and 1-((R)-[…]-3-hydroxy-3-(1-methyl-1H-imidazol-2-yl)propan-1-one (hereinafter, the compound of Comparative Example 4) shown in Table 4 were used. The compounds of Comparative Examples 1, 2, 3, and 4 were synthesized in accordance with methods described in International Publication No. WO2016/136944.
For peeling the F11 cells off from a culture flask, 0.25% Trypsin/EDTA (manufactured by Thermo Fisher Scientific K.K.) was added to the cells, followed by incubation at room temperature for several minutes. Thereafter, 10% fetal bovine serum-containing DMEM medium (manufactured by Thermo Fisher Scientific K.K.) was added thereto for suspension, and the resultant centrifuged at 1,500 rpm for 1 minute. After removing the resultant centrifugal supernatant, 0.5% fetal bovine serum-containing DMEM medium was added thereto for suspending cells therein, and the resultant seeded in a poly-D-lysine-coated 96 well plate (manufactured by BD Biosciences) coated with laminin (2 μg/cm^2, manufactured by Sigma Aldrich) to be cultured at 37° C. under an environment of 5% CO2. Two hours after seeding the cells, N,N-dibutyladenosine 3′,5′-phosphate (final concentration 1 mM, manufactured by Sigma Aldrich) and recombinant rat GDNF (final concentration 50 ng/mL, manufactured by PeproTech) were added thereto to culture the cells at 37° C. under an environment of 5% CO2 for 7 days for differentiation.
Seven days after starting the culture, the medium was exchanged with 0.5% fetal bovine serum-containing DMEM medium containing oxaliplatin (final concentration 15 μM), and the resultant cultured for 5 days to induce axonal injury. Each of the compounds of Examples and Comparative Examples was caused to be contained in the medium (final concentration 10 μM) for treatment in the same manner as oxaliplatin.
Five days after treatment with oxaliplatin and each of the compounds, the resultant cells were washed with PBS(−) three times, a 4% paraformaldehyde-phosphate buffer (manufactured by Wako Pure Chemical Industries Ltd.) was added thereto, and the resultant allowed to stand still at room temperature for 10 minutes to fix the cells. Acti-stain 670 phalloidin (manufactured by Cytoskeleton Inc.) was added thereto, and the resultant incubated at room temperature for 30 minutes to stain actin filaments. An image of the cells was acquired using IN Cell Analyzer 2200 (manufactured by GE Healthcare), and the image analyzed using IN Cell Investigator Developer Toolbox. The amount of intracellular actin filaments was indicated by the amount of fluorescence (density) of fluorescent-labeled phalloidin binding to the actin filaments.
In a group treated with oxaliplatin alone (hereinafter, the oxaliplatin alone treated group), the amount of intracellular actin filaments increased by 5% compared to that in a group not treated with oxaliplatin. […] A decreasing rate of intracellular actin filaments, caused by each compound compared to the amount of intracellular actin filaments of the oxaliplatin alone treated group was calculated. […]
On to `CN(C)C1CCN(C(=O)CC(O)c2nccn2CC(F)(F)F)CC1` (stereo not shown) [Comparative Example 2, 1-(4-(dimethylamino)piperidin-1-yl)-3-hydroxy-3-(1-(2,2,2-trifluoroethyl)-1H-imidazol-2-yl)propan-1-one, reference compound], for which the inhibition at 10 µM was at most 5%. Regarding `CN(C)[C@@H]1CCCN(C(=O)CC(O)c2nccn2C)C1` (stereo partly shown) [Comparative Example 4, reference compound], the inhibition at 10 µM was at most 5%. In the case of `Cn1ccnc1C(O)CC(=O)N1CCC(N2CCOCC2)CC1` (stereo not shown) [Example 1, 3-hydroxy-3-(1-methyl-1H-imidazol-2-yl)-1-(4-morpholinopiperidin-1-yl)propan-1-one], the inhibition at 10 µM was at least 5%.

On to `CC(C)n1ccnc1C(O)CC(=O)N1CCC(N(C)C)CC1` (stereo not shown) [Example 3, 1-(4-(dimethylamino)piperidin-1-yl)-3-(1-isopropyl-1H-imidazol-2-yl)-3-hydroxypropan-1-one], for which the inhibition at 10 µM was at least 5%.

Take `CN(C)C1CCN(C(=O)CC(O)c2ncc(Cl)n2C)CC1` (stereo not shown) [Example 4, 3-(5-chloro-1-methyl-1H-imidazol-2-yl)-1-(4-(dimethylamino)piperidin-1-yl)-3-hydroxypropan-1-one]: the inhibition at 10 µM is at least 5%. For the compound `COCCn1ccnc1C(O)CC(=O)N1CCC(N(C)C)CC1` (stereo not shown) [Example 5, 1-(4-(dimethylamino)piperidin-1-yl)-3-(1-(2-methoxyethyl)-1H-imidazol-2-yl)-3-hydroxypropan-1-one], the inhibition at 10 µM is at least 5%.

Regarding `CN(C)C1CCN(C(=O)CC(O)c2nccn2CCC(F)(F)F)CC1` (stereo not shown) [Example 6, 1-(4-(dimethylamino)piperidin-1-yl)-3-(1-(3,3,3-trifluoropropyl)-1H-imidazol-2-yl)-3-hydroxypropan-1-one], the inhibition at 10 µM is at least 5%. On to `CN1CCN(C2CCN(C(=O)CC(O)c3nccn3C)CC2)CC1` (stereo not shown) [Example 8, 3-hydroxy-3-(1-methyl-1H-imidazol-2-yl)-1-(4-(4-methylpiperazin-1-yl)piperidin-1-yl)propan-1-one], for which the inhibition at 10 µM was at least 5%.

Still in this test, the particulars now being: oxaliplatin alone 15 μM, 5 days; p<0.05.
Regarding `O=C1[O][Pt]2([NH][C@@H]3CCCC[C@H]3[NH]2)[O]C1=O` [oxaliplatin, reference compound], the “increase of the amount of intracellular actin filaments compared to a group not treated with oxaliplatin” value was 5%.

Source of the values: patent US12545668B2, “Cyclic amine derivative as agent for promoting advillin function, and novel cyclic amine derivative and pharmaceutical use thereof” (Toray Industries, Inc., priority 2018, dated 2026).
